Assay: Viscosity at 25° C. with a Brookfield viscometer DV-I
Format: physicochemical

SMILES: CC(=O)Oc1c(C)c(C)c2c(c1C)CCC(C)(CCC[C@H](C)CCC[C@H](C)CCCC(C)C)O2 (some centres unmarked) [Comp A, Vitamin E acetate]
- viscosity, in words (25° C.): extremely fluid
- Viscosity at 25° C. (Rotor G = 2, 10 rpm): 3200 cP
